For 139 molecules, melting point results are on record in a melting point compilation (Tetko et al.).

For the series the following is noted: a range is the spread between reports.

In turn, `Nc1cccc2ncccc12` showed a melting point of 108 to 110 °C.
The result for `O=P(Oc1ccccc1)(Oc1ccccc1)Oc1ccccc1` reads 50 to 50.5 °C; that for `CCCCCCCCCCCCN(C)C`, -20 to -15 °C.
The result for `C1=CC=CCC=C1` reads -80 to -79.5 °C.
Regarding `Cc1cc(Cl)nc2ccccc12`, the melting point lay within 55 to 59 °C.
The result for `C=CCBr` reads -119 °C; that for `Cc1cc(C)c(O)c(C)c1`, 72 to 73 °C.
Then `Oc1ccccc1-c1nc2ccccc2s1`, with 131 to 132 °C; and `CCCCCCCCCCCCCl`, with -9.3 to -9 °C.
The result for `O=[N+]([O-])c1cc(Br)ccc1Br` reads 82 to 85.5 °C.
Turning to `Cc1ccccc1C(=O)O`, the melting point was in the range of 104 to 108 °C.
Then `COc1ccc(OC)c([N+](=O)[O-])c1`, with 71 to 72.5 °C; and `c1ccc(-c2ccccn2)nc1`, with 70 to 72 °C; and `CCOc1ccc(C(C)(C)COCc2cccc(Oc3ccccc3)c2)cc1`, with 36 to 37 °C.
Then `BrCCCBr`, with -34.2 to -34 °C; and `CCCCC(=O)CC`, with -39 to -37 °C; and `COc1ccc(C=O)c(OC)c1`, with 69 to 72 °C.
Then `O=C(O)c1cc(Br)cc(Br)c1O`, with 226 to 228 °C; and `Brc1ccc2ccccc2c1`, with 54 to 59 °C; and `NCC1CCNCC1`, with 24 to 25 °C.
Molecule `COc1ccccc1[N+](=O)[O-]` had a melting point of 9.4 to 10.5 °C.
For the molecule `N#Cc1ccc(-c2ccc(C#N)cc2)cc1`, the melting point fell in the range of 234 to 238 °C.
`O=Cc1ccc(C(=O)O)cc1` displayed a melting point of 245 to 247 °C.
Then `O=[N+]([O-])c1ccc(Cl)c(Cl)c1Cl`, with 55 to 56 °C.
Then `Clc1cc(Cl)c(Cl)c(Cl)c1Cl`, with 85 to 86 °C.
Turning to `Clc1cncc(Cl)c1`, the melting point lay in the range of 65 to 66 °C.
The result for `COc1cccc(OC)c1C(C)=O` reads 69 to 70 °C; that for `CCOC(=O)C(C(=O)OCC)c1ccccc1`, 16 to 16.5 °C; that for `c1ccc(OCC2CO2)cc1` (centres undefined), 3.5 to 4 °C.
As for `CCOc1ccc(C=O)cc1`, the melting point lay in the range of 13.5 to 14 °C.
The result for `COC(=O)c1ccc(I)cc1` reads 115 °C; that for `CCc1ccc(O)cc1O`, 97 to 98.5 °C.
Then `Cc1ncc[nH]1`, with 143 to 144 °C; and `NC(=O)c1c(Cl)cccc1Cl`, with 198 to 199 °C.
`Brc1ccc2c(c1)Cc1ccccc1-2` had a melting point of 112 to 114 °C.
For `CCC1(C)CC1`, the melting point is -130 °C.
The result for `COc1ccc(N)cc1Cl` reads 50 to 52.5 °C; that for `c1ccc(-c2nc3ccccc3s2)cc1`, 114 to 115 °C.
Take `O=C1CCO1`: the melting point was -34 to -33.4 °C.
Then `OC1CCCCCCCCC1`, with 39.9 to 40.5 °C.
Take `CCCCCCCBr`: the melting point is -58 to -56 °C.
`COC(=O)c1c(Cl)c(Cl)c(C(=O)OC)c(Cl)c1Cl` came in with a melting point of 155 to 157 °C.
Then `c1ccc2c(c1)sc1ccccc12`, with 97 to 99 °C.
Regarding `Oc1ccc2[nH]ccc2c1`, the melting point is 108 to 109 °C.
As for `O=C1c2ccccc2-c2cccc3cccc1c23`, the melting point fell in the range of 170 to 173 °C.
`COC(=O)c1ccc(Cl)cc1` gave a melting point of 43 to 44 °C.
`CC(C)c1ccccc1O` returned a melting point of 15 to 16 °C.
Then `CCc1cccc(-c2ccccc2)c1`, with -28 to -27.5 °C.
Then `Oc1ccc(Cl)c(O)c1`, with 106 to 107 °C; and `CCSSCC`, with -102 °C.
`NCCCCNCCCN` returned a melting point of 23.5 to 24 °C.
`Nc1ccccc1Nc1ccccc1` displayed a melting point of 79 to 79.5 °C.
Then `CCCCCCCCCCC`, with -26 to -25.6 °C; and `CC(=O)c1cccc(Br)c1`, with 7.5 to 8 °C.
On to `O=C(O)Cc1ccc(O)cc1`, for which the melting point was 149 to 152 °C.
`CCCCCCC(C)C` had a melting point of -80.3 to -80 °C.
Then `CC(C)(CO)CO`, with 125 to 130 °C.
The result for `CCc1ccccc1CC` reads -31.2 to -31 °C; that for `COc1ccc(C#N)cc1`, 59 to 61.5 °C; that for `C#CC(C)(O)c1ccccc1` (centres undefined), 48 to 52.3 °C.
The result for `COc1cc(OC)c(C=O)c(OC)c1` reads 120 to 121 °C.
`COc1ccccc1C(=O)O`: the melting point lay within 99 to 101 °C.
As for `CN1CCC(=C2c3ccccc3C=Cc3ccccc32)CC1`, the melting point fell in the range of 112 to 113 °C.
Turning to `N#Cc1ccccc1C(N)=O`, the melting point was 172 to 173 °C.
On to `CCCCCCCCCCCCCCCCCCCCO`, for which the melting point is 64 to 66.1 °C.
The result for `Cc1cc(Br)ccc1Br` reads 5 to 6 °C; that for `C=C(C)OC(C)=O`, -93 to -92.9 °C; that for `COc1cc(C=CC(=O)c2ccccc2O)ccc1O`, 126 to 129 °C.
`Cc1cnccn1` returned a melting point of -30 to -29 °C.
In the case of `Cc1cc(C)c(C)c(CCl)c1C`, the melting point fell in the range of 69.5 to 70.5 °C.
Then `CC12CCC(C1)C(C)(C)C2O` (centres undefined), with 43.5 to 48 °C; and `Nc1cc(Cl)c(O)c(Cl)c1`, with 167 to 168 °C.
Then `C=C(C)C(C)C`, with -157 °C; and `Cc1ccc2ccccc2n1`, with -2 to -1.5 °C.
The result for `O=C(O)CCc1ccc(O)cc1` reads 129 to 131 °C; that for `O=C(c1ccccc1)c1ccc([N+](=O)[O-])cc1`, 137 to 138 °C.
As for `O=C1CCC(c2ccccc2)CC1`, the melting point was 79.5 to 80 °C.
The result for `OCCc1ccccn1` reads -8 to -7.8 °C; that for `O=C(CCl)c1ccccc1`, 54 to 56.5 °C; that for `COc1ccc([N+](=O)[O-])c(OC)c1`, 74 to 76.5 °C.
`C=CCCCCCCCCCC`: the melting point is -37 to -35 °C.
Then `O=C(O)CCCl`, with 39 to 41 °C.
`Cc1cc(=O)cc(C)o1` had a melting point of 132 to 134 °C.
On to `Nc1cc(Cl)c(Cl)cc1Cl`, for which the melting point is 94 to 96.5 °C.
Then `CN(C)CCC=C1c2ccccc2CCc2ccccc21`, with 196 °C; and `CCOc1ccc(OCC)cc1`, with 70 to 72 °C.
The result for `Cc1ccccc1Cc1ccccc1` reads 6.6 to 7 °C; that for `CCCCCCCCl`, -70 to -69.5 °C; that for `CCc1ccc(Cl)cc1`, -63 to -62.6 °C.
For `CC1OC(C)OC(C)O1` (centres undefined), the melting point is 12 to 12.6 °C.
The result for `CCC(C(=O)O)C(=O)O` reads 113 to 114 °C; that for `CCCCCS`, -76 to -75.7 °C.
Then `O=C(O)c1c(Cl)cc(Cl)cc1Cl`, with 162 to 163 °C; and `CC(C)Nc1ccc(Nc2ccccc2)cc1`, with 74 to 77 °C; and `C#CCCCC`, with -132 °C.
Turning to `O=[N+]([O-])c1ccc(Cl)cc1Cl`, the melting point was 30.5 to 34 °C.
In turn, `CC(C)=NO` gave a melting point of 61 to 62 °C.
In the case of `Clc1ccc(Cl)c(Br)c1`, the melting point was 34 to 35 °C.
The result for `Oc1ccc(Br)cc1Cl` reads 49 to 50.5 °C; that for `CC(C)CCC(=O)O`, -35 to -33 °C; that for `COc1cc(C(=O)O)ccc1O`, 212 to 214 °C.
Then `CCN(CC)CC`, with -115 °C; and `CCOC(=O)Cc1ccccc1`, with -29.4 to -29 °C; and `CCOc1ccc(O)cc1`, with 66 to 66.5 °C.
The result for `O=C1CNC(=O)N1` reads 220 to 222 °C; that for `Cc1cccc(-c2ccccc2)c1`, 4.5 to 5 °C.
As to `CCc1ccccn1`, the melting point is -63.1 to -63 °C.
In the case of `CC(=O)Oc1ccc(C(C)=O)cc1`, the melting point was 53 to 54 °C.
`CCCCCCCCCCCC`: the melting point was -10 to -9.6 °C.
On to `COc1ccc(CCCC(=O)O)cc1`, for which the melting point fell in the range of 57.5 to 59 °C.
With `O=Cc1cccc(Cl)c1`, the melting point was in the range of 17 to 18 °C.
On to `COc1ccc(Cc2nccc3cc(OC)c(OC)cc23)cc1OC`, for which the melting point lay in the range of 147 to 148 °C.
Molecule `CCCCC(C)CCC` (centres undefined) displayed a melting point of -113 °C.
Then `C=Cc1ccc(C(=O)O)cc1`, with 142 to 144 °C.
Then `CC(C)(O)C(=O)O`, with 79 to 82.5 °C; and `C1CCCCCCCCCCC1`, with 59 to 61 °C; and `c1ccc2cc3c(cc2c1)-c1cccc2cccc-3c12`, with 216 to 217 °C.
For `Ic1ccc(-c2ccccc2)cc1`, the melting point is 112 to 114 °C.
The result for `Nc1cccc(N)n1` reads 120 to 122 °C; that for `O=C1c2ccccc2C(=O)C1c1ccccc1`, 150 °C; that for `NNS(=O)(=O)c1ccccc1`, 102 to 103 °C.
For `c1ccc2c(c1)Nc1ccccc1S2`, the melting point fell in the range of 184 to 188 °C.
The molecule `OCc1ccc(Br)cc1` displayed a melting point of 76 to 78 °C.
The molecule `CCCCCCCC/C=C\CCCCCCCCCCCC(N)=O` showed a melting point of 77.5 to 79 °C.
The result for `Cl[SiH](Cl)Cl` reads -127 to -126 °C; that for `O=C1C(=O)c2cccc3cccc1c23`, 258 to 261 °C; that for `O=C(c1ccccc1)c1cccc(Cl)c1`, 82 to 83 °C.
The result for `O=C1CCCc2ccccc21` reads 7 to 8 °C; that for `COC(=O)C(C)C`, -85 to -84.7 °C.
Then `O=[N+]([O-])c1ccc(Cl)c(Cl)c1`, with 39 to 43 °C; and `Brc1ccc(Oc2ccccc2)cc1`, with 18 to 18.7 °C; and `C/C=C\CC`, with -151 °C.
`Brc1cc2ccccc2c2ccccc12` gave a melting point of 64 to 64.5 °C.
The result for `COc1cccc(OC)c1OC` reads 44 to 48.5 °C; that for `O=c1c(-c2ccccc2)c1-c1ccccc1`, 119 to 120 °C.
The result for `O=C(c1ccc(F)cc1)c1ccc(F)cc1` reads 104 to 108 °C; that for `CCn1cc(C(=O)O)c(=O)c2cc(F)c(N3CCNC(C)C3)c(F)c21` (centres undefined), 240 °C; that for `Oc1c(Cl)cccc1Cl`, 65 to 68.5 °C.
`CN(C)c1ccc(C(=O)c2ccccc2)cc1` yielded a melting point of 89 to 92.5 °C.
